Data taken from BindingDB's records for doi:10.1016/j.bmcl.2005.03.031 (Dartmouth College, 2005).

What follows are molecules tested against Nitric oxide synthase, inducible (Homo sapiens, UniProt P35228) (assay: Inhibition of inducible nitric oxide synthase in activated macrophages).
Chain of Nitric oxide synthase, inducible (P35228 whole entry): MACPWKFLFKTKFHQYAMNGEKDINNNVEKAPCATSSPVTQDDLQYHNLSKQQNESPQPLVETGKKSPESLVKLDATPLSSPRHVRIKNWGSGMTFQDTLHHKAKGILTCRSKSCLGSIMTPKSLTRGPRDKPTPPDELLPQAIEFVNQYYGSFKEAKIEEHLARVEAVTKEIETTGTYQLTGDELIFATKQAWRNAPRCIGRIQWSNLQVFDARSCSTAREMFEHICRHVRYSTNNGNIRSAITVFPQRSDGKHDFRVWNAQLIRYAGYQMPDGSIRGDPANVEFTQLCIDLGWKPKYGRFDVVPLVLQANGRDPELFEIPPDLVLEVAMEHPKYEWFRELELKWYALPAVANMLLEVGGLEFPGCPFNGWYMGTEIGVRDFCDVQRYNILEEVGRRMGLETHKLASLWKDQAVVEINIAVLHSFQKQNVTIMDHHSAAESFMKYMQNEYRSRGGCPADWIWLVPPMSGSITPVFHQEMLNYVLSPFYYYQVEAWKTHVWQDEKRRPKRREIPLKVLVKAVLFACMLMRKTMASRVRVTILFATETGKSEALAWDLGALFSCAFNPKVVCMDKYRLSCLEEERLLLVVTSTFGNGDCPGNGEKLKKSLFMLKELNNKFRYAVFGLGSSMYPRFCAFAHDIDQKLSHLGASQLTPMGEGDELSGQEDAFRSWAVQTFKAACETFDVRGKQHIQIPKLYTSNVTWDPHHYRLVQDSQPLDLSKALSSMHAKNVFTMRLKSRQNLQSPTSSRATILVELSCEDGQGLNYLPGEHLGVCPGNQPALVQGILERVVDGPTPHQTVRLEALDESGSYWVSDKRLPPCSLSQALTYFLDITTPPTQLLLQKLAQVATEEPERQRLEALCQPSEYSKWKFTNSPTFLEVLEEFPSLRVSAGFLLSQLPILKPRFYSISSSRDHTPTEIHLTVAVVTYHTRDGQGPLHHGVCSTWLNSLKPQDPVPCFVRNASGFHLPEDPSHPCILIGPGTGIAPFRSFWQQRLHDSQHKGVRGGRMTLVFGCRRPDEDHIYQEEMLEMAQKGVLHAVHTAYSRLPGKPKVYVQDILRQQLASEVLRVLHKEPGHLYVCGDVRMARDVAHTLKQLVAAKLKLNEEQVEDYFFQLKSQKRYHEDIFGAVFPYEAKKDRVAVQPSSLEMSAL

| Structure (SMILES) | IC50 |
| --- | --- |
| CC1(C)CC[C@]2(C(=O)O)CC[C@]3(C)C(=CCC4[C@@]5(C)C=CC(=O)C(C)(C)C5CC[C@]43C)C2C1 (stereo partly drawn) [(4aS,6aS,6bR,12aR)-2,2,6a,6b,9,9,12a-Heptamethyl-10-oxo-1,3,4,5,6,6a,6b,7,8,8a,9,10,12a,12b,13,14b-hexadecahydro-2H-picene-4a-carboxylic acid] | 5.6 µM |
| CC1(C)CC[C@]2(C(=O)O)CC[C@]3(C)C(=CC(=O)C4[C@@]5(C)C=C(C#N)C(=O)C(C)(C)C5CC[C@]43C)C2C1 (stereo partly drawn) [(4aS,6aS,6bR,12aS)-11-Cyano-2,2,6a,6b,9,9,12a-heptamethyl-10,13-dioxo-1,3,4,5,6,6a,6b,7,8,8a,9,10,12a,12b,13,14b-hexadecahydro-2H-picene-4a-carboxylic acid] | 0.04 µM |
| CC1(C)CC[C@]2(C(=O)O)CC[C@]3(C)C(=CC[C@@H]4[C@@]5(C)CC[C@H](O)C(C)(C)[C@@H]5CC[C@]43C)[C@@H]2C1 [Oleanolic acid (OA)(Compound 1)] | > 40 µM |

More lines, in order of falling IC50, values ahead:

| IC50 | Structure (SMILES) |
| --- | --- |
| 37 µM | CC1(C)CC[C@]2(C(=O)O)CC[C@]3(C)C(=CC[C@@H]4[C@@]5(C)CCC(=O)C(C)(C)[C@@H]5CC[C@]43C)[C@@H]2C1 [Oleanonic Acid] |
| 3.3 µM | CC1(C)CC[C@]2(C(=O)O)CC[C@]3(C)C(C(=O)CC4[C@@]5(C)C=CC(=O)C(C)(C)C5CC[C@]43C)C2C1 (stereo partly drawn) [(4aS,6aR,6bR,12aR)-2,2,6a,6b,9,9,12a-Heptamethyl-10,14-dioxo-1,3,4,5,6,6a,6b,7,8,8a,9,10,12a,12b,13,14,14a,14b-octadecahydro-2H-picene-4a-carboxylic acid] |
| 0.6 µM | CC1(C)CC[C@]2(C(=O)O)CC[C@]3(C)C(=CCC4[C@@]5(C)C=C(C#N)C(=O)C(C)(C)C5CC[C@]43C)C2C1 (stereo partly drawn) [(4aS,6aS,6bR,12aR)-11-Cyano-2,2,6a,6b,9,9,12a-heptamethyl-10-oxo-1,3,4,5,6,6a,6b,7,8,8a,9,10,12a,12b,13,14b-hexadecahydro-2H-picene-4a-carboxylic acid] |
